Patent US20200392150A1, “Diaryl-B-Lactam Compound and Preparation Method and Pharmaceutical Use Thereof” (Fudan University, priority 2016, published 2020)
“Also recorded” adds a separate entry of the source.

How the values were obtained:
[1] = tested on: tubulin in Hela cells; assay: Immunoblotting analysis of polymerized/depolymerized tubulin; format: cell-based, human; details: 6 h
Protocol: After being treated with diluent (0.2% DMSO), tested compound, CA-4 or PTX for 6 h, Hela cells were lysed with microtubulestabilizing buffer, containing 100 mM PIPES, pH 6.8, 1 mM MgCl2, 2 mM EGTA, 0.5% NP-40, 2 M glycerol, 5 μM PTX and protease inhibitors cocktail (Roche), and the lysate was centrifuged at 15,000 rpm for 15 min. Supernatant containing depolymerized tubulin was carefully collected, whereas pellet (polymerized tubulin) was further dissolved in SDS-lysis buffer (Beyotime, China). Equal amounts of supernatant and dissolved pellet were subjected to immunoblotting analysis as described above using atubulin antibody (Proteintech).

[2] = tested on: tubulin in SKOV-3 cells; assay: Immunofluorescent analysis of tubulin morphology; format: cell-based, human; details: 24 h
Protocol: After treatment with diluent (0.2% DMSO) or tested compounds at indicated concentrations for 24 h, SKOV-3 cells were fixed with methanol, permeabilized with 0.1% Triton X-100 in PBS and blocked by goat serum. Then the cells were incubated with a-tubulin antibody at 4° C. overnight, followed by incubation with Alexa 488 labeled secondary antibody (Jackson ImmunoResearch) at RT for 1 h. After being stained with DAPI, cells were examined and photographed with a Leica SP5 co-focal fluorescence microscope.

[3] = tested on: MDA-MB-231 cells; assay: Colony formation assay; format: cell-based, human; details: 48 h treatment, 7-10 days growth
Protocol: 1000 MDA-MB-231 cells per well were seeded into 6-well plate at a single cell density and were cultured at 37° C. for 48 h. After being treated with indicated concentrations of 69, 70 and 97, CA-4 as positive control, or diluent (0.2% DMSO) as negative control for 48 h, the agents containing medium was replaced by fresh medium to allow cell growth for additional 7-10 days. Then the cells were fixed with methanol and stained with gentian violet for 30 min.
The number of colonies which consisted of more than 50 cells were counted. The results were indicated as mean values from three independent determinations.

[4] = tested on: Hela cells; assay: Cell cycle analysis; format: cell-based, human; details: 24 h
Protocol: 2*10^5 Hela cells per well were seeded into six-well plate and allowed to adhere overnight at 37° C. After treatment with indicated concentrations of 69, 70 and 97, CA-4 as positive control or diluent (0.2% DMSO) as negative control for 24 h, cells were harvested, washed twice with PBS and fixed with 75% ethanol at −20° C. overnight. Then cells were stained with propidium iodide dye (BD Biosciences) for 15 min in dark conditions at room temperature, followed by subjected to flow cytometry (Cytomics FC 500MPL, Beckman Coulter) detection. The results were analyzed by Multicycle AV (for Windows, version 320) software and indicated as mean values from three independent determinations.

[5] = tested on: Bax, p53 and cleaved-PARP in HeLa cells; assay: Expression level of apoptosis associated proteins; format: cell-based, human; details: western blotting and qPCR
Protocol: A. Western blotting: After being treated with candidate compound, cells were harvested and lysed. Then, the lysate was isolated by ultracentrifuge and quantified by BCA assay according to the protocol. After being denatured, equivalent protein of each sample was separated by SDSPAGE gel and wet-transferred onto 0.22 μm nitrocellulose membrane. After being blocked by PBS containing 5% skim milk, the membrane was incubated with primary antibody at 4° C. overnight and secondary antibody at room temperature for 2 h and then visualized by enhanced chemiluminescence kit (Thermo Fisher, USA), sequentially.
B. Quantitative PCR assay: HeLa cells were treated with 69, 70 or 97. The expression level of mRNA of target proteins was tested with qPCR kit (Takara).

[6] = tested on: KM mice; assay: Acute toxicity assay; format: in vivo; details: for No. of dead mice 5-14 days / No. of dead mice 1 day / No. of dead mice 2 days / No. of dead mice 3 days / No. of dead mice 4 days / Survival (%) on day 14 / Total death: single i.p. injection
Protocol: KM mice were housed individually in a specific pathogen free facility. Groups of mice (n=10 per group, half male and half female) were injected intraperitoneally once with various dosages of 69 (95, 70, 50, 35, 25 mg/kg), 70 (500, 425, 350, 275, 200 mg/kg), 97 (275, 200, 150, 125 and 100 mg/kg) or vehicle (8.3% cremohorp EL and 8.3% alcohol in PBS) as negative control, respectively. 69, 70 and 97 was dissolved in cremeohore EL and alcohol mixture (1:1, v/v) and further diluted with PBS (1:5, v/v). The death of mice were monitored daily and recorded up to 14 days after injection.

[7] = tested on: A2780 cells xenograft; assay: Xenografts tumor growth assay in nude mice; format: in vivo, Balb/c nude mice; details: i.p. once every 2 days, 69 7.5 mg/kg, 70 12.5 mg/kg, 97 4 or 8 mg/kg
Protocol: 6 weeks old female Balb/c nude mice were purchased from Shanghai Slac Laboratory Animal Co. Ltd. (Shanghai, China). 2*10^6 A2780 cells suspended in 0.2 mL PBS per mouse was injected subcutaneously into the nude mice. […] Administration of agents or vehicle, or agents and measurement of tumor volumes with a digital caliper was done once every 2 days. Tumor volumes were calculated as volume=shortest diameter (W)^2*longest diameter (L)*0.52. When the average tumor volumes of vehicle treated group reached 2000 mm^3 in diameter, the mice were sacrificed and the tumors were isolated and weighed. Visceral organs of the mice as well as solid tumors were further analyzed by H&E staining.

COc1ccc([C@H]2[C@H](CO)C(=O)N2c2cc(OC)c(OC)c(OC)c2)cc1O [Compound 69, (3R,4R)-4-(3-hydroxy-4-methoxyphenyl)-3-(hydroxymethyl)-1-(3,4,5-trimethoxyphenyl)azetidin-2-one]
polymerized tubulin (immunoblotting) [1]: significantly inhibit tubulin aggregation; also recorded: dramatically reduction of polymerized tubulin
tubulin assembly (immunofluorescence) [2]: significantly inhibit tubulin aggregation; also recorded: strongly inhibit tubulin assembly
colony formation [3]: significantly inhibit the formation of colonies; also recorded: dose-dependently reduced
cell cycle arrest (G2/M, mitotic arrest) [4]: significantly arrest cells in the G2/M phase; also recorded: significantly induce cellular mitotic arrest
expression of Bax, p53 and cleaved-PARP [5]: significantly promote the expression of the proapoptotic protein Bax, the tumor suppressor gene p53, and the cleaved DNA repair enzyme; also recorded: significantly induce the expression of Bax, p53 and cleaved-PARP
No. of dead mice 5-14 days ([6]; 25 mg/kg): 0
No. of dead mice 1 day ([6]; 25 mg/kg): 0
No. of dead mice 2 days ([6]; 25 mg/kg): 0
No. of dead mice 3 days ([6]; 25 mg/kg): 0
No. of dead mice 4 days ([6]; 25 mg/kg): 0
Survival (%) on day 14 ([6]; 25 mg/kg): 100%
Total death ([6]; 25 mg/kg): 0
No. of dead mice 5-14 days ([6]; 35 mg/kg): 0
No. of dead mice 1 day ([6]; 35 mg/kg): 0
No. of dead mice 2 days ([6]; 35 mg/kg): 0
No. of dead mice 3 days ([6]; 35 mg/kg): 1
No. of dead mice 4 days ([6]; 35 mg/kg): 0
Survival (%) on day 14 ([6]; 35 mg/kg): 90%
Total death ([6]; 35 mg/kg): 1
No. of dead mice 5-14 days ([6]; 50 mg/kg): 0
No. of dead mice 1 day ([6]; 50 mg/kg): 0
No. of dead mice 2 days ([6]; 50 mg/kg): 0
No. of dead mice 3 days ([6]; 50 mg/kg): 1
No. of dead mice 4 days ([6]; 50 mg/kg): 0
Survival (%) on day 14 ([6]; 50 mg/kg): 90%
Total death ([6]; 50 mg/kg): 1
No. of dead mice 5-14 days ([6]; 70 mg/kg): 1
No. of dead mice 1 day ([6]; 70 mg/kg): 0
No. of dead mice 2 days ([6]; 70 mg/kg): 0
No. of dead mice 3 days ([6]; 70 mg/kg): 4
No. of dead mice 4 days ([6]; 70 mg/kg): 2
Survival (%) on day 14 ([6]; 70 mg/kg): 30%
Total death ([6]; 70 mg/kg): 7
No. of dead mice 5-14 days ([6]; 95 mg/kg): 1
No. of dead mice 1 day ([6]; 95 mg/kg): 0
No. of dead mice 2 days ([6]; 95 mg/kg): 0
No. of dead mice 3 days ([6]; 95 mg/kg): 6
No. of dead mice 4 days ([6]; 95 mg/kg): 1
Survival (%) on day 14 ([6]; 95 mg/kg): 20%
Total death ([6]; 95 mg/kg): 8
LD50 ([6]; single intraperitoneal injection, 14 days): 61.5 mg/kg
H&E staining of liver, kidney and spleen [7]: no abnormal areas are observed in tissue staining of liver, kidney and spleen; also recorded: no detectable abnormalities were observed in liver, kidney and spleen
H&E staining of tumor sections [7]: cause tumor tissue to produce necrotic areas; also recorded: extensive areas of necrosis or cell death
mouse body weight [7]: no significant influence on mouse body weight; also recorded: no significant weight loss observed
tumor growth in vivo [7]: significantly inhibit tumor growth in vivo; also recorded: anti-tumor activities in vivo

COc1ccc([C@H]2[C@@H](C)C(=O)N2c2cc(OC)c(OC)c(OC)c2)cc1O [Compound 70, (3R,4R)-4-(3-hydroxy-4-methoxyphenyl)-3-methyl-1-(3,4,5-trimethoxyphenyl)azetidin-2-one]
polymerized tubulin (immunoblotting) [1]: significantly inhibit tubulin aggregation; also recorded: dramatically reduction of polymerized tubulin
tubulin assembly (immunofluorescence) [2]: significantly inhibit tubulin aggregation; also recorded: strongly inhibit tubulin assembly
colony formation [3]: significantly inhibit the formation of colonies; also recorded: dose-dependently reduced
cell cycle arrest (G2/M, mitotic arrest) [4]: significantly arrest cells in the G2/M phase; also recorded: significantly induce cellular mitotic arrest
expression of Bax, p53 and cleaved-PARP [5]: significantly promote the expression of the proapoptotic protein Bax, the tumor suppressor gene p53, and the cleaved DNA repair enzyme; also recorded: significantly induce the expression of Bax, p53 and cleaved-PARP
No. of dead mice 5-14 days ([6]; 200 mg/kg): 0
No. of dead mice 1 day ([6]; 200 mg/kg): 0
No. of dead mice 2 days ([6]; 200 mg/kg): 0
No. of dead mice 3 days ([6]; 200 mg/kg): 0
No. of dead mice 4 days ([6]; 200 mg/kg): 0
Survival (%) on day 14 ([6]; 200 mg/kg): 100%
Total death ([6]; 200 mg/kg): 0
No. of dead mice 5-14 days ([6]; 275 mg/kg): 1
No. of dead mice 1 day ([6]; 275 mg/kg): 0
No. of dead mice 2 days ([6]; 275 mg/kg): 0
No. of dead mice 3 days ([6]; 275 mg/kg): 0
No. of dead mice 4 days ([6]; 275 mg/kg): 1
Survival (%) on day 14 ([6]; 275 mg/kg): 80%
Total death ([6]; 275 mg/kg): 2
No. of dead mice 5-14 days ([6]; 350 mg/kg): 0
No. of dead mice 1 day ([6]; 350 mg/kg): 0
No. of dead mice 2 days ([6]; 350 mg/kg): 0
No. of dead mice 3 days ([6]; 350 mg/kg): 1
No. of dead mice 4 days ([6]; 350 mg/kg): 0
Survival (%) on day 14 ([6]; 350 mg/kg): 90%
Total death ([6]; 350 mg/kg): 1
No. of dead mice 5-14 days ([6]; 425 mg/kg): 0
No. of dead mice 1 day ([6]; 425 mg/kg): 0
No. of dead mice 2 days ([6]; 425 mg/kg): 0
No. of dead mice 3 days ([6]; 425 mg/kg): 3
No. of dead mice 4 days ([6]; 425 mg/kg): 0
Survival (%) on day 14 ([6]; 425 mg/kg): 70%
Total death ([6]; 425 mg/kg): 3
No. of dead mice 5-14 days ([6]; 500 mg/kg): 0
No. of dead mice 1 day ([6]; 500 mg/kg): 0
No. of dead mice 2 days ([6]; 500 mg/kg): 0
No. of dead mice 3 days ([6]; 500 mg/kg): 4
No. of dead mice 4 days ([6]; 500 mg/kg): 0
Survival (%) on day 14 ([6]; 500 mg/kg): 60%
Total death ([6]; 500 mg/kg): 4
H&E staining of liver, kidney and spleen [7]: no abnormal areas are observed in tissue staining of liver, kidney and spleen; also recorded: no detectable abnormalities were observed in liver, kidney and spleen
H&E staining of tumor sections [7]: cause tumor tissue to produce necrotic areas; also recorded: extensive areas of necrosis or cell death
mouse body weight [7]: no significant influence on mouse body weight; also recorded: no significant weight loss observed
tumor growth in vivo [7]: significantly inhibit tumor growth in vivo; also recorded: anti-tumor activities in vivo
